Test results from PubChem BioAssay (NCI).
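Method: 48-hour compound exposure of cells in 96-well plates, five concentrations, linear interpolation of endpoints. Abbreviation: GI50, concentration required for 50% inhibition of growth. At the TGI there is no net growth.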

Legend:
Assay in all cases: growth of human tumour cells (NCI), 48 h
OVCAR-5 ovarian = tested on: OVCAR-5 ovarian
HCT-116 colon = tested on: HCT-116 colon
DU-145 prostate = tested on: DU-145 prostate
MOLT-4 leukemia = tested on: MOLT-4 leukemia
UO-31 renal = tested on: UO-31 renal
UACC-62 melanoma = tested on: UACC-62 melanoma
SK-OV-3 ovarian = tested on: SK-OV-3 ovarian
IGROV1 ovarian = tested on: IGROV1 ovarian
M14 melanoma = tested on: M14 melanoma
SK-MEL-28 melanoma = tested on: SK-MEL-28 melanoma
SF-268 CNS = tested on: SF-268 CNS
NCI-H23 lung = tested on: NCI-H23 lung
HT29 colon = tested on: HT29 colon
NCI-H226 lung = tested on: NCI-H226 lung
HL-60(TB) leukemia = tested on: HL-60(TB) leukemia
MDA-MB-231 breast = tested on: MDA-MB-231 breast
RXF 393 renal = tested on: RXF 393 renal
HOP-92 NSCLC = tested on: HOP-92 NSCLC
MCF7 breast = tested on: MCF7 breast
NCI-H460 lung = tested on: NCI-H460 lung
COLO 205 colon = tested on: COLO 205 colon
T-47D breast = tested on: T-47D breast
SF-295 CNS = tested on: SF-295 CNS
NCI-H522 lung = tested on: NCI-H522 lung
TK-10 renal = tested on: TK-10 renal
MALME-3M melanoma = tested on: MALME-3M melanoma
NCI/ADR-RES ovarian = tested on: NCI/ADR-RES ovarian
CAKI-1 renal = tested on: CAKI-1 renal
HS 578T breast = tested on: HS 578T breast
UACC-257 melanoma = tested on: UACC-257 melanoma
A549 NSCLC = tested on: A549 NSCLC
HCT-15 colon = tested on: HCT-15 colon
PC-3 prostate = tested on: PC-3 prostate
LOX IMVI melanoma = tested on: LOX IMVI melanoma
SN12C renal = tested on: SN12C renal
SK-MEL-2 melanoma = tested on: SK-MEL-2 melanoma
OVCAR-4 ovarian = tested on: OVCAR-4 ovarian
CCRF-CEM leukemia = tested on: CCRF-CEM leukemia
HCC-2998 colon = tested on: HCC-2998 colon
SR leukemia = tested on: SR leukemia
786-0 renal = tested on: 786-0 renal
ACHN renal = tested on: ACHN renal
K-562 leukemia = tested on: K-562 leukemia
A498 renal = tested on: A498 renal
BT-549 breast = tested on: BT-549 breast
SNB-19 CNS = tested on: SNB-19 CNS
HOP-62 NSCLC = tested on: HOP-62 NSCLC
SW-620 colon = tested on: SW-620 colon
KM12 colon = tested on: KM12 colon
SK-MEL-5 melanoma = tested on: SK-MEL-5 melanoma
RPMI-8226 leukemia = tested on: RPMI-8226 leukemia
MDA-MB-435 = tested on: MDA-MB-435
SF-539 CNS = tested on: SF-539 CNS
OVCAR-8 ovarian = tested on: OVCAR-8 ovarian
U251 CNS = tested on: U251 CNS
SNB-75 CNS = tested on: SNB-75 CNS
OVCAR-3 ovarian = tested on: OVCAR-3 ovarian

SMILES: CC(=O)c1nc2ccccc2n1CCN1CCN(C)CC1
- GI50 (OVCAR-5 ovarian): 3.5 µM
- TGI (OVCAR-5 ovarian): > 100 µM
- GI50 (HCT-116 colon): 1.2 µM
- TGI (HCT-116 colon): > 100 µM
- GI50 (DU-145 prostate): 2.79 µM
- TGI (DU-145 prostate): 12.3 µM
- GI50 (MOLT-4 leukemia): 8.2 µM
- TGI (MOLT-4 leukemia): > 100 µM
- GI50 (UO-31 renal): 9.35 µM
- TGI (UO-31 renal): > 100 µM
- GI50 (UACC-62 melanoma): 4.11 µM
- TGI (UACC-62 melanoma): > 100 µM
- GI50 (SK-OV-3 ovarian): 3.61 µM
- TGI (SK-OV-3 ovarian): 59.5 µM
- GI50 (IGROV1 ovarian): 4.83 µM
- TGI (IGROV1 ovarian): > 100 µM
- GI50 (M14 melanoma): 2.66 µM
- TGI (M14 melanoma): > 41.6 µM
- GI50 (SK-MEL-28 melanoma): 7.15 µM
- TGI (SK-MEL-28 melanoma): > 100 µM
- GI50 (SF-268 CNS): 4.63 µM
- TGI (SF-268 CNS): > 100 µM
- GI50 (NCI-H23 lung): 6.01 µM
- TGI (NCI-H23 lung): > 100 µM
- GI50 (HT29 colon): 0.639 µM
- TGI (HT29 colon): 10.4 µM
- GI50 (NCI-H226 lung): 31.5 µM
- TGI (NCI-H226 lung): > 100 µM
- GI50 (HL-60(TB) leukemia): 2.62 µM
- TGI (HL-60(TB) leukemia): > 26.2 µM
- GI50 (MDA-MB-231 breast): 2.98 µM
- TGI (MDA-MB-231 breast): > 95.8 µM
- GI50 (RXF 393 renal): 1.59 µM
- TGI (RXF 393 renal): 18.6 µM
- GI50 (HOP-92 NSCLC): 0.416 µM
- GI50 (MCF7 breast): 1.16 µM
- TGI (MCF7 breast): > 100 µM
- GI50 (NCI-H460 lung): 2.3 µM
- TGI (NCI-H460 lung): > 100 µM
- GI50 (COLO 205 colon): 1.89 µM
- TGI (COLO 205 colon): 6.39 µM
- GI50 (T-47D breast): 2.97 µM
- TGI (T-47D breast): > 100 µM
- GI50 (SF-295 CNS): 2.12 µM
- TGI (SF-295 CNS): 15.4 µM
- GI50 (NCI-H522 lung): 1.8 µM
- TGI (NCI-H522 lung): 6.11 µM
- GI50 (TK-10 renal): 11.5 µM
- TGI (TK-10 renal): 84.3 µM
- GI50 (MALME-3M melanoma): 2.38 µM
- TGI (MALME-3M melanoma): > 100 µM
- GI50 (NCI/ADR-RES ovarian): 61.1 µM
- TGI (NCI/ADR-RES ovarian): > 100 µM
- GI50 (CAKI-1 renal): 34.1 µM
- TGI (CAKI-1 renal): > 100 µM
- GI50 (HS 578T breast): 2.15 µM
- TGI (HS 578T breast): 25.9 µM
- GI50 (UACC-257 melanoma): 5.47 µM
- TGI (UACC-257 melanoma): > 100 µM
- GI50 (A549 NSCLC): 2.63 µM
- TGI (A549 NSCLC): > 100 µM
- GI50 (HCT-15 colon): 25 µM
- TGI (HCT-15 colon): > 100 µM
- GI50 (PC-3 prostate): 2.41 µM
- TGI (PC-3 prostate): > 100 µM
- GI50 (LOX IMVI melanoma): 2.6 µM
- TGI (LOX IMVI melanoma): > 100 µM
- GI50 (SN12C renal): 4.21 µM
- TGI (SN12C renal): > 100 µM
- GI50 (SK-MEL-2 melanoma): 3.28 µM
- TGI (SK-MEL-2 melanoma): 47.6 µM
- GI50 (OVCAR-4 ovarian): 15.7 µM
- TGI (OVCAR-4 ovarian): > 100 µM
- GI50 (CCRF-CEM leukemia): 3.29 µM
- TGI (CCRF-CEM leukemia): > 100 µM
- GI50 (HCC-2998 colon): 3.63 µM
- TGI (HCC-2998 colon): 26.9 µM
- GI50 (SR leukemia): 1.32 µM
- TGI (SR leukemia): > 100 µM
- GI50 (786-0 renal): 17.6 µM
- TGI (786-0 renal): > 100 µM
- GI50 (ACHN renal): 23.4 µM
- TGI (ACHN renal): > 100 µM
- GI50 (K-562 leukemia): 3.95 µM
- TGI (K-562 leukemia): > 100 µM
- GI50 (A498 renal): 3.46 µM
- TGI (A498 renal): > 52.7 µM
- GI50 (BT-549 breast): 6.21 µM
- TGI (BT-549 breast): > 100 µM
- GI50 (SNB-19 CNS): 17.3 µM
- TGI (SNB-19 CNS): > 100 µM
- GI50 (HOP-62 NSCLC): 3.57 µM
- TGI (HOP-62 NSCLC): > 100 µM
- GI50 (SW-620 colon): 2.8 µM
- TGI (SW-620 colon): > 100 µM
- GI50 (KM12 colon): 3.06 µM
- TGI (KM12 colon): > 100 µM
- GI50 (SK-MEL-5 melanoma): 3.13 µM
- TGI (SK-MEL-5 melanoma): > 100 µM
- GI50 (RPMI-8226 leukemia): 1.9 µM
- TGI (RPMI-8226 leukemia): > 100 µM
- GI50 (MDA-MB-435): 0.373 µM
- TGI (MDA-MB-435): 1.69 µM
- GI50 (SF-539 CNS): 2.28 µM
- TGI (SF-539 CNS): > 50.4 µM
- GI50 (OVCAR-8 ovarian): 3.76 µM
- TGI (OVCAR-8 ovarian): > 100 µM
- GI50 (U251 CNS): 3.82 µM
- TGI (U251 CNS): > 100 µM
- GI50 (SNB-75 CNS): 0.0668 µM
- TGI (SNB-75 CNS): 1.57 µM
- GI50 (OVCAR-3 ovarian): 2.6 µM
- TGI (OVCAR-3 ovarian): > 26 µM
